Laboratory results: PubChem BioAssay (NCI)
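Dose response: 5 concentrations. Exposure: 48 h. Format: 96-well plates. Endpoint: linear interpolation; highest concentration if not reached. The concentration for full growth arrest is given as TGI.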

Assays:
Experiment in all cases: NCI tumour cell line growth inhibition, 48 h
[1] = test system: 786-0 renal
[2] = test system: A498 renal
[3] = test system: A549 NSCLC
[4] = test system: ACHN renal
[5] = test system: CAKI-1 renal
[6] = test system: CCRF-CEM leukemia
[7] = test system: COLO 205 colon
[8] = test system: DLD-1 colon
[9] = test system: DMS 114 small cell lung
[10] = test system: DMS 273 small cell lung
[11] = test system: EKVX NSCLC
[12] = test system: HCC-2998 colon
[13] = test system: HCT-116 colon
[14] = test system: HCT-15 colon
[15] = test system: HL-60(TB) leukemia
[16] = test system: HOP-18 NSCLC
[17] = test system: HOP-62 NSCLC
[18] = test system: HOP-92 NSCLC
[19] = test system: HT29 colon
[20] = test system: IGROV1 ovarian
[21] = test system: K-562 leukemia
[22] = test system: KM12 colon
[23] = test system: KM20L2 colon
[24] = test system: LOX IMVI melanoma
[25] = test system: LXFL 529 NSCLC
[26] = test system: M14 melanoma
[27] = test system: M19-MEL melanoma
[28] = test system: MALME-3M melanoma
[29] = test system: MOLT-4 leukemia
[30] = test system: NCI-H226 lung
[31] = test system: NCI-H23 lung
[32] = test system: NCI-H460 lung
[33] = test system: NCI-H522 lung
[34] = test system: OVCAR-3 ovarian
[35] = test system: OVCAR-4 ovarian
[36] = test system: OVCAR-5 ovarian
[37] = test system: OVCAR-8 ovarian
[38] = test system: RPMI-8226 leukemia
[39] = test system: RXF 393 renal
[40] = test system: SF-268 CNS
[41] = test system: SF-295 CNS
[42] = test system: SF-539 CNS
[43] = test system: SK-MEL-2 melanoma
[44] = test system: SK-MEL-28 melanoma
[45] = test system: SK-MEL-5 melanoma
[46] = test system: SK-OV-3 ovarian
[47] = test system: SN12C renal
[48] = test system: SNB-19 CNS
[49] = test system: SNB-75 CNS
[50] = test system: SNB-78 CNS
[51] = test system: SR leukemia
[52] = test system: SW-620 colon
[53] = test system: TK-10 renal
[54] = test system: U251 CNS
[55] = test system: UACC-257 melanoma
[56] = test system: UACC-62 melanoma
[57] = test system: UO-31 renal
[58] = test system: XF 498 CNS
[59] = test system: RXF-631 renal

C=C1C(=O)OC2/C=C(/C)C3CC(O)C(C)(CC(OC(=O)/C(C)=C/C)C12)O3 (centres undefined)
TGI [1]: 11.5 µM | TGI [2]: 23.2 µM | TGI [3]: 23.6 µM | TGI [4]: 6.71 µM | TGI [5]: 4.86 µM | TGI [6]: 8.1 µM | TGI [7]: 3.08 µM | TGI [8]: 3.12 µM | TGI [9]: 19.8 µM | TGI [10]: 8.8 µM | TGI [11]: 14.5 µM | TGI [12]: 28.4 µM | TGI [13]: 3.08 µM | TGI [14]: 3.61 µM | TGI [15]: 18.3 µM | TGI [16]: 31.2 µM | TGI [17]: 46.7 µM | TGI [18]: 8.68 µM | TGI [19]: 13.1 µM | TGI [20]: 18.7 µM | TGI [21]: > 28.8 µM | TGI [22]: 11.3 µM | TGI [23]: 13.1 µM | TGI [24]: 4.4 µM | TGI [25]: 5.84 µM | TGI [26]: 9.08 µM | TGI [27]: 9.57 µM | TGI [28]: 4.48 µM | TGI [29]: > 26.8 µM | TGI [30]: 35.3 µM | TGI [31]: 16.9 µM | TGI [32]: 18.3 µM | TGI [33]: 6.12 µM | TGI [34]: 14.2 µM | TGI [35]: 20.6 µM | TGI [36]: 21.6 µM | TGI [37]: 3.99 µM | TGI [38]: > 22.4 µM | TGI [39]: 3.49 µM | TGI [40]: 14.4 µM | TGI [41]: > 54 µM | TGI [42]: 4.86 µM | TGI [43]: 7.34 µM | TGI [44]: 8.35 µM | TGI [45]: 16.2 µM | TGI [46]: > 65.2 µM | TGI [47]: 11.3 µM | TGI [48]: 30.8 µM | TGI [49]: 28.2 µM | TGI [50]: 7.7 µM | TGI [51]: > 24 µM | TGI [52]: 3.46 µM | TGI [53]: 20.1 µM | TGI [54]: 25.3 µM | TGI [55]: 17.6 µM | TGI [56]: 5.22 µM | TGI [57]: 18.3 µM | TGI [58]: 17.2 µM

O=C1C=CC2=[N+]([O-])C(c3ccccc3)(c3ccccc3)C(=Nc3ccccc3)C2=C1
TGI [3]: 29.4 µM | TGI [4]: 3.36 µM | TGI [5]: 6.33 µM | TGI [6]: 2.18 µM | TGI [8]: 3.14 µM | TGI [9]: 3.32 µM | TGI [11]: 14.1 µM | TGI [12]: 19.6 µM | TGI [13]: 3.92 µM | TGI [14]: 6.34 µM | TGI [16]: 7.52 µM | TGI [17]: 29.3 µM | TGI [18]: 3.48 µM | TGI [19]: 5.63 µM | TGI [20]: 3.45 µM | TGI [21]: 4.34 µM | TGI [23]: 5.22 µM | TGI [24]: 3.74 µM | TGI [25]: 3.36 µM | TGI [26]: 3.76 µM | TGI [27]: 3.36 µM | TGI [28]: 4.2 µM | TGI [30]: 22.3 µM | TGI [31]: 5.64 µM | TGI [32]: 34.4 µM | TGI [33]: 3.02 µM | TGI [34]: 3.37 µM | TGI [35]: 3.28 µM | TGI [36]: 30 µM | TGI [37]: 3.39 µM | TGI [38]: 7.83 µM | TGI [39]: 3.04 µM | TGI [59]: 11.1 µM | TGI [40]: 11.4 µM | TGI [41]: 27.7 µM | TGI [42]: 19.5 µM | TGI [43]: 40.7 µM | TGI [45]: 27.2 µM | TGI [46]: 31.8 µM | TGI [47]: 3.96 µM | TGI [48]: 31.6 µM | TGI [49]: 8.74 µM | TGI [50]: 15.6 µM | TGI [51]: 0.763 µM | TGI [52]: 3.65 µM | TGI [53]: 3.27 µM | TGI [54]: 7.32 µM | TGI [55]: 4.11 µM | TGI [56]: 4.51 µM | TGI [57]: 5.33 µM | TGI [58]: 2.71 µM
